Reference: patent US20250236608A1, “EGFR INHIBITORS” (Blueprint Medicines Corporation, priority 2022, published 2025)
pIC50: −log10 of the molar value.

How the values were obtained:
EGFR mutant NSCLC = conditions: cited from earlier work; for objective response rate (ORR): EGFR M+ NSCLC patients treated first line (1 L)
[1] = biological target: pEGFR (Tyr1068) in PC-9 cells (Ex19Del) (Homo sapiens (Human), UniProt P00533, DEL746-750); assay: PC-9 pEGFR AlphaLISA assay; format: cell-based; conditions: 4 hours incubation, p-EGFR (Tyr1068) AlphaLISA, read-out: Ext pEGFR_PC-9 Ex19Del IC50
Chain of pEGFR (Tyr1068) in PC-9 cells (Ex19Del) (P00533 other isoform, or with tags, fused parts or gaps del 746-750): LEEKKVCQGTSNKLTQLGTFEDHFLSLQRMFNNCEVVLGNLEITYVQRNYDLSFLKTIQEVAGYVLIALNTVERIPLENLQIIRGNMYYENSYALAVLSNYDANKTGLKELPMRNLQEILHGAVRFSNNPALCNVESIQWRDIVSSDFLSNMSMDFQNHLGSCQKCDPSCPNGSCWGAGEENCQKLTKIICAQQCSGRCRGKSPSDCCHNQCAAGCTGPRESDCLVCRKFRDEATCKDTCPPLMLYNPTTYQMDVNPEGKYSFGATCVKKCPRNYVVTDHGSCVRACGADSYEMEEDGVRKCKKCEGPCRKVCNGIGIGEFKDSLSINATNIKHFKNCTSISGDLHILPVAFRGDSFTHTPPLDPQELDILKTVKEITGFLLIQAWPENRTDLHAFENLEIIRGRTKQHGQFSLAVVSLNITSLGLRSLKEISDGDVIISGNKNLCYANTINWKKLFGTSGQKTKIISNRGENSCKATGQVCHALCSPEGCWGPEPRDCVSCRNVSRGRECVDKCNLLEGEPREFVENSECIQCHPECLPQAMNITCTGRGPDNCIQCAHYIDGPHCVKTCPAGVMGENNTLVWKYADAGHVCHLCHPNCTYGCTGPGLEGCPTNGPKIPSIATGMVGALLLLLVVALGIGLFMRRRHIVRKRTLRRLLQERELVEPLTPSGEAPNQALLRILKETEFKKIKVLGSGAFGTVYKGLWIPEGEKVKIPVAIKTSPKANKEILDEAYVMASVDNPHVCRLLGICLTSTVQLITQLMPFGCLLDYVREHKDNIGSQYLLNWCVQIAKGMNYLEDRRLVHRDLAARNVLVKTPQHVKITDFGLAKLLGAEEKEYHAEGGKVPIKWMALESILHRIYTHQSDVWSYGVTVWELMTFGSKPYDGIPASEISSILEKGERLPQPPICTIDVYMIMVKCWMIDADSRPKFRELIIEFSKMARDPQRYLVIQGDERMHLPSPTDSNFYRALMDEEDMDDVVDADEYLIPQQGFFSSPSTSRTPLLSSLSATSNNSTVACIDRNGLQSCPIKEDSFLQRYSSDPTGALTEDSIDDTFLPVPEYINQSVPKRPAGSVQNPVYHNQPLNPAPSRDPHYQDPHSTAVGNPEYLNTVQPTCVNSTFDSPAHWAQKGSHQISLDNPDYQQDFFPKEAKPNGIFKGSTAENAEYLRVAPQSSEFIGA
Method in brief: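 PC-9 cells seeded overnight in phenol-free DMEM with 10% FBS, then treated 4 h at 37°C with a 10-point, 4-fold compound series. Lysates assayed for pEGFR Tyr1068 by AlphaLISA SureFire; IC50 from % inhibition vs log concentration.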

EGFR L858R = EGFR L858R (Homo sapiens (Human), UniProt P00533, L858R); assay: Biochemical EGFR inhibition assay, EGFR L858R; conditions: Caliper mobility shift; 1.0 mM ATP or ATP Km; read-out: Enz EGFR_L858R IC50
Chain of EGFR L858R (P00533 25-1210 L858R): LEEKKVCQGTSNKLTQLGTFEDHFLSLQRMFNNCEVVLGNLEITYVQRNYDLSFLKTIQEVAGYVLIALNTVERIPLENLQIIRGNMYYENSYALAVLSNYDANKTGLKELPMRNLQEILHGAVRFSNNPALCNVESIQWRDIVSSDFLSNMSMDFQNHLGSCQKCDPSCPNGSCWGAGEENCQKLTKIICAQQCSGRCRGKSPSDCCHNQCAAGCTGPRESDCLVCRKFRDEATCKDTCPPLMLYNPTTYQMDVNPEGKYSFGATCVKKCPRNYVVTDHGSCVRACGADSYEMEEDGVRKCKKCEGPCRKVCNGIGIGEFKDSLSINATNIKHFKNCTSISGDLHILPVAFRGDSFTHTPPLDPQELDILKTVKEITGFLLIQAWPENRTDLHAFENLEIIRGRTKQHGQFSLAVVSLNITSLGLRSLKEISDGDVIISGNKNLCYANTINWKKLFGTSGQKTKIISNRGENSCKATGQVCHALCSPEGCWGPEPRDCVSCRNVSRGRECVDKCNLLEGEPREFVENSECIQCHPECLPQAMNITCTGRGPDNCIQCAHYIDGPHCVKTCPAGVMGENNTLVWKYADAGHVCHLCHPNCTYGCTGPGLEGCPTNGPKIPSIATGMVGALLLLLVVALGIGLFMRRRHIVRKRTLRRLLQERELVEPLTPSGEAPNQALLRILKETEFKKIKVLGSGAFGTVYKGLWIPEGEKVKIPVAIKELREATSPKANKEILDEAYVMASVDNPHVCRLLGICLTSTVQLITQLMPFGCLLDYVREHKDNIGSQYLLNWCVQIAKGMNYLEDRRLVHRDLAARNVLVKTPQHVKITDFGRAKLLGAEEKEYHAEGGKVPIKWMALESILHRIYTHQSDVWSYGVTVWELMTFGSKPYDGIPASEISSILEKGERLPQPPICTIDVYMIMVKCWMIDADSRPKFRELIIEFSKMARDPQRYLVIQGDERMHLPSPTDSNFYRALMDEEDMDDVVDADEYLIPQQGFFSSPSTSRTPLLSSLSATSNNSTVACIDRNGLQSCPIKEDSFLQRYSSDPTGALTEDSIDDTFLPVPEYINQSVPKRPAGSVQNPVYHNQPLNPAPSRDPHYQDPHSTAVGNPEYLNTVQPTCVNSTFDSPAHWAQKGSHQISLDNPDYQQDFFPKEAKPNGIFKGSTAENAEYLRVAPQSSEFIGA

EGFR (d746-750) = EGFR (d746-750) (Homo sapiens (Human), UniProt P00533, DEL746-750); assay: Biochemical EGFR inhibition assay, EGFR (d746-750); conditions: Caliper mobility shift; 1.0 mM ATP or ATP Km; read-out: Enz EGFR_Exon19-del746-750 IC50
Chain of EGFR (d746-750) (P00533 other isoform, or with tags, fused parts or gaps del 1-694/del 746-750 limits assumed): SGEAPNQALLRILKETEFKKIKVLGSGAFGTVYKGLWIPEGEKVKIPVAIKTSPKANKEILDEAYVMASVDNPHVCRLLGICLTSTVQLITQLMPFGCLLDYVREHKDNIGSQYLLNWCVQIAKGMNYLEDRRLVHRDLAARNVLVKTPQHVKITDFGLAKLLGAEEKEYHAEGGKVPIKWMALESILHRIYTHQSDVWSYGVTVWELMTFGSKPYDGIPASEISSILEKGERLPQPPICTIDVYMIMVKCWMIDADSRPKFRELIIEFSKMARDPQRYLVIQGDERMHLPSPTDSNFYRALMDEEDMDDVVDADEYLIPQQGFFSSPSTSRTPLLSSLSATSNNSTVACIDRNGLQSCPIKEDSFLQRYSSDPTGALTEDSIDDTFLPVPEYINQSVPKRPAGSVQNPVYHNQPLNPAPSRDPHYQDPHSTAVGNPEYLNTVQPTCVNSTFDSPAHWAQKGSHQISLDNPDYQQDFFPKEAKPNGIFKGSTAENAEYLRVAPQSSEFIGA

pIC50 [1]	pIC50 (EGFR L858R)	pIC50 (EGFR (d746-750))	SMILES	objective response rate (ORR) (EGFR mutant NSCLC)	progression-free survival (PFS) (EGFR mutant NSCLC; first line, NSCLC harboring del 19 and L858R mutations) [mo]
–	–	–	C#Cc1cccc(Nc2ncnc3cc(OCCOC)c(OCCOC)cc23)c1 [erlotinib]	60-85%	–
–	–	–	C=CC(=O)Nc1cc(Nc2nccc(-c3cn(C)c4ccccc34)n2)c(OC)cc1N(C)CCN(C)C [osimertinib]	60-85%	18.9
8.57	8.82	9.00	C[C@@H](O)c1cc2c(-c3cn(CC(F)F)nc3-c3ccccc3)ncnc2cc1-c1cnn(C)c1 (single isomer, unassigned) [Example 445, (R)-1-(4-(1-(2,2-difluoroethyl)-3-phenyl-1H-pyrazol-4-yl)-7-(1-methyl-1H-pyrazol-4-yl)quinazolin-6-yl)ethan-1-ol or (S)-1-(4-(1-(2,2-difluoroethyl)-3-phenyl-1H-pyrazol-4-yl)-7-(1-methyl-1H-pyrazol-4-yl)quinazolin-6-yl)ethan-1-ol]	–	–
8.49	8.17	8.92	COc1cc2ncnc(-c3cn(C)nc3-c3ccccc3)c2cc1NC(=O)[C@]12COC[C@H]1C2 (single isomer, unassigned) [Example 260, (1S,5S)—N-(7-methoxy-4-(1-methyl-3-phenyl-1H-pyrazol-4-yl)quinazolin-6-yl)-5-methyl-3-oxabicyclo[3.1.0]hexane-1-carboxamide or (1R,5R)—N-(7-methoxy-4-(1-methyl-3-phenyl-1H-pyrazol-4-yl)quinazolin-6-yl)-3-oxabicyclo[3.1.0]hexane-1-carboxamide]	–	–
8.60	8.85	9.15	CCOc1cc2ncnc(-c3cn(C4CC4)nc3-c3ccccc3)c2cc1[C@@H](C)O (single isomer, unassigned) [Example 111, (R)-1-(4-(1-cyclopropyl-3-phenyl-1H-pyrazol-4-yl)-7-ethoxyquinazolin-6-yl)ethan-1-ol or (S)-1-(4-(1-cyclopropyl-3-phenyl-1H-pyrazol-4-yl)-7-ethoxyquinazolin-6-yl)ethan-1-ol]	–	–
8.80	8.80	9.15	COc1cc2ncnc(-c3cn(C)nc3-c3ccccc3)c2nc1NC(=O)c1ccccc1F [Example 359, 2-fluoro-N-(7-methoxy-4-(1-methyl-3-phenyl-1H-pyrazol-4-yl)pyrido[3,2-d]pyrimidin-6-yl)benzamide]	–	–
8.28	8.39	8.74	COc1cc2ncnc(-c3cn(C)nc3-c3ccccc3)c2cc1NC(=O)N1C[C@@H](C)N(C)C[C@@H]1C [Example 182, (2S,5R)—N-(7-methoxy-4-(1-methyl-3-phenyl-1H-pyrazol-4-yl)quinazolin-6-yl)-2,4,5-trimethylpiperazine-1-carboxamide]	–	–
9.52	8.62	8.82	COc1cc2ncnc(-c3cn(CC(F)F)nc3-c3ccccc3)c2cc1O[C@@H]1CCN(C)C[C@H]1F [Example 3, 4-(1-(2,2-difluoroethyl)-3-phenyl-1H-pyrazol-4-yl)-6-(((3R,4R)-3-fluoro-1-methylpiperidin-4-yl)oxy)-7-methoxyquinazoline]	–	–
8.60	8.74	8.85	CCOc1cc2ncnc(-c3cn(C(C)C)nc3-c3ccccc3)c2cc1[C@H](C)O (single isomer, unassigned) [Example 110, (S)-1-(7-ethoxy-4-(1-isopropyl-3-phenyl-1H-pyrazol-4-yl)quinazolin-6-yl)ethan-1-ol or (R)-1-(7-ethoxy-4-(1-isopropyl-3-phenyl-1H-pyrazol-4-yl)quinazolin-6-yl)ethan-1-ol]	–	–
8.62	8.82	9.00	COc1cc2ncnc(-c3cn(C)nc3-c3ccccc3)c2cc1NC(=O)c1c(Cl)cccc1Cl [Example 231, 2,6-dichloro-N-(7-methoxy-4-(1-methyl-3-phenyl-1H-pyrazol-4-yl)quinazolin-6-yl)benzamide]	–	–
8.46	8.68	9.05	COc1cc2ncnc(-c3cn(C)nc3-c3ccccc3)c2nc1NC(=O)[C@]12C[C@H]1CN(C)C2 (single isomer, unassigned) [Example 393, (1R,5R)—N-(7-methoxy-4-(1-methyl-3-phenyl-1H-pyrazol-4-yl)pyrido[3,2-d]pyrimidin-6-yl)-3-methyl-3-azabicyclo[3.1.0]hexane-1-carboxamide or (1S,5S)—N-(7-methoxy-4-(1-methyl-3-phenyl-1H-pyrazol-4-yl)pyrido[3,2-d]pyrimidin-6-yl)-3-methyl-3-azabicyclo[3.1.0]hexane-1-carboxamide]	–	–
8.23	8.42	8.80	COc1cc2ncnc(-c3cn(C)nc3-c3ccccc3)c2cc1NC(=O)c1cccnc1C [Example 195, N-(7-methoxy-4-(1-methyl-3-phenyl-1H-pyrazol-4-yl)quinazolin-6-yl)-2-methylnicotinamide]	–	–
9.30	9.10	9.40	COc1cc2ncnc(-c3cn(C)nc3-c3ccccc3)c2cc1NC(=O)c1cnc(C)s1 [Example 206, N-(7-methoxy-4-(1-methyl-3-phenyl-1H-pyrazol-4-yl)quinazolin-6-yl)-2-methylthiazole-5-carboxamide]	–	–
8.06	8.09	8.72	COc1cc2ncnc(-c3cn(C)nc3-c3ccccc3)c2cc1-c1ccc(OC)c2n[nH]cc12 [Example 151, 7-methoxy-6-(7-methoxy-2H-indazol-4-yl)-4-(1-methyl-3-phenyl-1H-pyrazol-4-yl)quinazoline]	–	–
8.89	8.55	8.96	COc1cc2ncnc(-c3cn(C)nc3-c3ccc(F)cc3)c2nc1NC(=O)[C@@]12CN(C)C[C@@H]1C2(F)F (single isomer, unassigned) [Example 426, (1S,5R)-6,6-difluoro-N-(4-(3-(4-fluorophenyl)-1-methyl-1H-pyrazol-4-yl)-7-methoxypyrido[3,2-d]pyrimidin-6-yl)-3-methyl-3-azabicyclo[3.1.0]hexane-1-carboxamide or (1R,5S)-6,6-difluoro-N-(4-(3-(4-fluorophenyl)-1-methyl-1H-pyrazol-4-yl)-7-methoxypyrido[3,2-d]pyrimidin-6-yl)-3-methyl-3-azabicyclo[3.1.0]hexane-1-carboxamide]	–	–
8.85	8.60	9.15	CCOc1cc2ncnc(-c3cn(C)nc3-c3ccccc3)c2nc1NC(=O)[C@@]12COC[C@@H]1C2 (single isomer, unassigned) [Example 380, (1R,5R)—N-(7-ethoxy-4-(1-methyl-3-phenyl-1H-pyrazol-4-yl)pyrido[3,2-d]pyrimidin-6-yl)-3-oxabicyclo[3.1.0]hexane-1-carboxamide or (1S,5S)—N-(7-ethoxy-4-(1-methyl-3-phenyl-1H-pyrazol-4-yl)pyrido[3,2-d]pyrimidin-6-yl)-3-oxabicyclo[3.1.0]hexane-1-carboxamide]	–	–
